Patent US20040072205A1, “Methods for treating neuronal disorders” (priority 2002, published 2004)

Legend:
human patients with ALS = conditions: cited from earlier work
[1] = test system: hSOD1^G93A transgenic ALS mice; test: Minocycline treatment of ALS mice: Rotarod onset and mortality; assay type: in vivo, mouse
Description: We tested the effectiveness of minocycline on a mouse model of ALS and investigated its mechanism of neuroprotection. […] We evaluated the effect of minocycline on one of the ALS mouse models expressing the mutant human SOD1^G93A transgene. Minocycline (10 mg/kg body weight/day) was injected beginning at five weeks of age. Mutant hSOD1^G93A transgenic mice were evaluated weekly on a Rotarod to follow disease progression.
Minocycline administration started at six weeks of age at a slightly higher dose (11 mg/kg body weight/day).
ALS mice (Jackson Laboratories, Bar Harbor, Me.) were injected intraperitoneally daily with saline or minocycline (Sigma, St. Louis, Mo.). Strength and coordination were evaluated weekly by Rotarod (Columbus Instruments, Columbus, Ohio). Disease onset was defined as the first day a mouse could not remain on the Rotarod for 10 min at 15 rpm. Mortality was scored as age of death or age when the mouse was unable to right itself within 30 seconds (Li et al., supra).

Row | Compound | side effects (human patients with ALS) | Onset of impaired motor performance (Rotarod), age ([1]; 10 mg/kg body weight/day i.p. from five weeks of age, saline 90.3±2.2 days, P<0.001) [days] | Survival, age ([1]; 10 mg/kg body weight/day i.p. from five weeks of age, saline 125.6±3.4 days, P<0.01) [days] | Mortality, age ([1]; modified protocol: 11 mg/kg body weight/day from six weeks of age, n=8/group, saline 126.3±2.7 days, P<0.05) [days]
1 | Nc1nc2ccc(OC(F)(F)F)cc2s1 [riluzole] | causes liver damage |  |  | 
2 | CN(C)c1ccc(O)c2c1C[C@H]1C[C@H]3[C@H](N(C)C)C(O)=C(C(N)=O)C(=O)[C@@]3(O)C(O)=C1C2=O [Minocycline] |  | 109.0 ± 1.5 | 136.8 ± 1.2 | 139.0 ± 2.1
